# Test results: patent US11802135B2, “Lysophosphatidic acid derivative” (MITSUBISHI TANABE PHARMA CORPORATION, priority 2021, dated 2023)
# Where a name gives a salt, the structure may show the parent alone. Read-outs that look alike come from different tables or passages of the source.
# What was measured:
# human LPA4 receptor = molecular target: T1, human LPA4 receptor (Homo sapiens, UniProt Q99677); test: LPA4/SRE-luc reporter assay in RH7777 cells stably expressing human LPA4 receptor and SRE-Luc2; assay type: cell-based
# T1 construct: expressed in transfected cells; host or cells: rat hepatocellular carcinoma cell line RH7777, targeted integration at the rRosa26 site
# Protocol: (§1) A stably expressing cell line that constantly expresses the human LPA4 receptor and SRE-Luc2 was established by the gene targeting introduction method of the rat hepatocellular carcinoma cell line RH7777 into rRosa26 site. Similarly, stably expressing cell lines for human LPA1 receptor and SRE-Luc2 were also established. Each cell line was seeded on a collagen-coated dish and maintained in culture, and cells were collected with trypsin EDTA and the required number (5×10^3 cells/well) was seeded on a 96-well plate. After culturing overnight at 37° C., LPA (Avanti Polar Lipids, Inc.) or each Example compound diluted with an assay medium added or not added with BSA was added, and the cells were cultured at 37° C. for 6 hr. Thereafter, a luciferase detection reagent (Bright-Glo, Promega) was added, and the chemiluminescence amount was quantified with an Envision (registered trade mark) multi-label counter (PerkinElmer) and used as an index of agonist activity.
# (§2) The EC50 value of LPA or each Example compound was calculated using the […] Graph pad Prism for Windows ver.5.02 and ver.7.04. % Emax was expressed as the ratio of the maximum response (Emax) of LPA or each Example compound to the maximum response (Emax) of the positive control compound VPC 31144S (N-{(1S)-2-hydroxy-1-[(phosphonooxy)methyl]ethyl}(9Z) cctadec-9-enamide), with the Emax of the positive control compound VPC 31144S as 100%.
# human LPA1 receptor = molecular target: T2, human LPA1 receptor (Homo sapiens, UniProt Q92633); test: LPA1/SRE-luc reporter assay in RH7777 cells stably expressing human LPA1 receptor and SRE-Luc2; assay type: cell-based
# T2 construct: expressed in transfected cells; host or cells: rat hepatocellular carcinoma cell line RH7777 (made 'similarly' to the LPA4 line)
# Protocol: as §1, §2
# Balb/c nu/nu mouse = test: Gel blood flow ratio in mice transplanted with Matrigel containing basicFGF; assay type: in vivo; conditions: 3 mg/kg tail vein once per day, day 5 to 7 after transplantation; vs solvent administration group, t-test p<0.01
# Protocol: A 5-week-old male Balb/c nu/nu mouse (CLEA Japan, Inc.) was subcutaneously transplanted with 500 μL of Matrigel (Corning) admixed with recombinant mouse basicFGF (Biobyt Ltd.) to a final concentration of 200 ng/mL. The test compound was dissolved in a 50% aqueous ethanol solution at a concentration of 10 mg/mL to give a stock solution, diluted with phosphate-buffered saline (PBS) immediately before administration, and used for consecutive administration into the tail vein of mouse at a dose of 3 mg/kg once per day from the 5th day to the 7th day of the transplantation. On the 7th day of transplantation, after 4 hours from the administration of the test compound, Genhance750 (PerkinElmer) was administered to the tail vein, and 20 min later under isoflurane anesthesia, whole body fluorescence at 800 nm was imaged using an in vivo analyzer (IVIS Spectrum, PerkinElmer) at an excitation wavelength of 745 nm. The gel blood flow ratio was calculated by dividing the radiance of Matrigel by the radiance of the auricle.
# [1] = tested on: mouse lung cancer cell line LLC-1; test: Tumor volume in mice transplanted with LLC-1, combination with paclitaxel; assay type: in vivo
# Protocol: An 8-week-old female […] mouse (Nippon SLC) was subcutaneously transplanted with 1×10^6 cells/100 μL of mouse lung cancer cell line LLC-1 suspended in D-MEM medium containing 50% Matrigel (Corning). On the 9th day after transplantation of the cell line, 8 mice were grouped such that the tumor volume and body weight were uniform (Day 0). The tumor volume was calculated by measuring the minor axis and the major axis of the tumor with a vernier caliper (minor axis x minor axis x major axis/2). Example compound 16 was intraperitoneally administered every day from Day 0 at a dose of 30 mg/kg. As an existing anticancer drug, paclitaxel (paclitaxel injection, Pfizer) was intraperitoneally administered to mice at a dose of 20 mg/kg twice in total on Day 3 and Day 10. The tumor volume of each group was calculated every other day from Day 0 to Day 15. Phosphate-buffered saline in the same amount as the drug solution was administered to the solvent administration group.
# [2] = Evaluation of chemical stability, preserved at 60° C. (sealed) for a week, UPLC; assay type: physicochemical
# Protocol: About 0.5 mg of each of test sample (lysophosphatidic acid (LPA) and Example compound 16) preserved at 60° C. (sealed) for a week and non-preserved sample (at the start of testing) was weighed, and dissolved in a mixed solution (1 mL) of acetonitrile/water (1:1) to prepare test solutions. Test was performed by the liquid chromatographic method under the following conditions, and individual peak area % was determined. It was measured by Waters ACQUITY UPLC under the following conditions. • Detector: photodiode array (measurement wavelength 220 nm) • Column: Waters ACQUITY BEH C18 (2.1 mm×100 mm, 1.7 μm) • Column temperature: constant temperature around 40° C. • Mobile phase: Solution A; […] ammonium acetate in water (pH 8.5), • Solution B; […] ammonium acetate in acetonitrile/water (17:3) (pH8.5) • Concentration gradient control: B % 2→100% (15 min) • Flow rate: 0.5 mL/min • Injection volume: […] <Experimental Results>
# [3] = BSA not added, read-out: LPA4/SRE-luc EC50
# [4] = RH7777, BSA not added, Emax of positive control VPC 31144S as 100%, read-out: LPA4/SRE-luc % Emax
# [5] = BSA not added, read-out: LPA1/SRE-luc EC50
# [6] = RH7777, read-out: LPA4/SRE-luc % Emax
# [7] = BSA added, read-out: LPA4/SRE-luc EC50
# [8] = RH7777, BSA added, Emax of positive control VPC 31144S as 100%, read-out: LPA4/SRE-luc % Emax
# [9] = BSA added, read-out: LPA1/SRE-luc EC50
# T2 sequence (Q92633 whole entry): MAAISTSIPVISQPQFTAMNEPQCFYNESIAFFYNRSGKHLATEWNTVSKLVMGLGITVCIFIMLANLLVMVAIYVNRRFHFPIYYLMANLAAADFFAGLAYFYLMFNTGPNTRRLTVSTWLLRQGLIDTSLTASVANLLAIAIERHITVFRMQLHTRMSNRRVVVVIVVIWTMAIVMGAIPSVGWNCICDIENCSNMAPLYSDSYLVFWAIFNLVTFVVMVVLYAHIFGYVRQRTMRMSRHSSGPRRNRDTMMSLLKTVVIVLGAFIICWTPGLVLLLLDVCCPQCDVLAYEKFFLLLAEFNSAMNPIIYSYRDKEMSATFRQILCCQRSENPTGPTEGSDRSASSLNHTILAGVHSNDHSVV
# T1 sequence (Q99677 whole entry): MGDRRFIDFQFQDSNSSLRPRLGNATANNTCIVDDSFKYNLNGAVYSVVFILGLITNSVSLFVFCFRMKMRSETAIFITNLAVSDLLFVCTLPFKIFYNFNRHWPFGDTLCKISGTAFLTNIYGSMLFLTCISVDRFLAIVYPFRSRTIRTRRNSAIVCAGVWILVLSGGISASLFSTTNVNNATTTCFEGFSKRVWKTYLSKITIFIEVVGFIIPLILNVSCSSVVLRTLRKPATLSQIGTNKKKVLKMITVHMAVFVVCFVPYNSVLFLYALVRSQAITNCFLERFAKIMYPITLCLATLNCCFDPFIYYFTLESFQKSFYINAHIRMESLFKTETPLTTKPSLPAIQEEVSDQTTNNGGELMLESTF
EC50 (human LPA4 receptor; [7]),Emax (human LPA4 receptor; [8]),EC50 (human LPA1 receptor; [9]),SMILES,gel blood flow ratio (Balb/c nu/nu mouse),also measured
,,,"CCCCc1ccc(CCCCCCCCC(=O)N2CC(OP(=O)(O)O)C2)cc1 [Example compound 70, 1-[9-(4-Butylphenyl)nonanoyl]azetidin-3-yl dihydrogen phosphate ammonium salt]",significantly increased,EC50 (human LPA4 receptor; [3]): < 41 nM; Emax (human LPA4 receptor; [4]): 239%; EC50 (human LPA1 receptor; [5]): > 10000 nM
,,,"CCc1ccc(CCCCCCCCC(=O)N2CC(OP(=O)(O)O)C2)cc1 [Example compound 16, 1-[9-(4-Ethylphenyl)nonanoyl]azetidin-3-yl dihydrogen phosphate]",,"tumor volume on Day 15 ([1]; 30 mg/kg i.p. every day combined with paclitaxel 20 mg/kg, vs paclitaxel alone group, t-test p<0.01): further reduced significantly; chemical stability in comparison with LPA ([2]; 60° C. (sealed) for a week): high chemical stability; total ratio (%) of increment of related substances ([2]; 60° C., humidity without artificial control, 1 week): 1.29%"
,,,"CC(=O)O[C@H]1C(=O)[C@@]2(C)[C@H]([C@H](OC(=O)c3ccccc3)[C@]3(O)C[C@H](OC(=O)[C@H](O)[C@@H](NC(=O)c4ccccc4)c4ccccc4)C(C)=C1C3(C)C)[C@]1(OC(C)=O)CO[C@@H]1C[C@@H]2O [paclitaxel, reference compound]",,"tumor volume on Day 15 ([1]; paclitaxel alone 20 mg/kg i.p. Day 3 and Day 10, vs solvent administration group, t-test p<0.05): significantly smaller"
,,,"CCc1ccc(CCCCCCCCC(=O)N2CC(OP(=O)(O)O)C2)cc1 [Example 16, 1-[9-(4-Ethylphenyl)nonanoyl]azetidin-3-yl dihydrogen phosphate]",significantly increased,EC50 (human LPA4 receptor; [3]): 12 nM; Emax (human LPA4 receptor; [6]): 162%; EC50 (human LPA1 receptor; [5]): > 10000 nM
1.9 nM,129%,> 10000 nM,"O=C(CCCCCCCCc1ccc(-c2ccccc2)cc1)N1CC(OP(=O)(O)O)C1 [Example compound 82, 1-[9-(Biphenyl-4-yl)nonanoyl]azetidin-3-yl dihydrogen phosphate]",significantly increased,
< 41 nM,120%,> 10000 nM,"COc1ccc(CN(CCOP(=O)(O)O)C(=O)CCCCCc2cccc(CCCCC3CCCCC3)c2)cc1 [Example compound 129, 2-[{6-[3-(4-Cyclohexylbutyl)phenyl]hexanoyl}(4-methoxybenzyl)amino]ethyl dihydrogen phosphate ammonium salt]",,
,,,"CCCCCCCCCCCOc1cccc(-c2ccnc(NC[C@@H](C)OP(O)(O)=S)c2)c1 [Example compound 138, O-[(2R)-1-({4-[3-(Undecyloxy)phenyl]pyridin-2-yl}amino)propan-2-yl] dihydrogen phosphorothioate-ammonium salt]",,EC50 (human LPA4 receptor): < 41 nM; Emax (human LPA4 receptor; [6]): 73%; EC50 (human LPA1 receptor): > 10000 nM
47 nM,121%,> 10000 nM,"CCCc1ccc(CCCCCCCCC(=O)N(CCOP(=O)(O)O)Cc2cncs2)cc1 [Example compound 102, 2-{[9-(4-Propylphenyl)nonanoyl] (1,3-thiazol-5-ylmethyl)amino}ethyl dihydrogen phosphate ammonium salt]",,
4.1 nM,94%,> 3000 nM,"CC(C)(C)c1ccc(CCCCCCCCC(=O)N2CC(OP(=O)(O)O)C2)cc1 [Example compound 84, 1-[9-(4-tert-Butylphenyl)nonanoyl]azetidin-3-yl dihydrogen phosphate]",significantly increased,
50 nM,97%,> 10000 nM,"O=C(CCCCCCCCc1ccc(C2CC2)cc1)N1CC(OP(=O)(O)O)C1 [Example compound 87, 1-[9-(4-Cyclopropylphenyl)nonanoyl]azetidin-3-yl dihydrogen phosphate ammonium salt]",,
,,,"CCCCCCCCCCOc1cccc(CCC(=O)N2CC[C@@H](OP(=O)(O)O)C2)c1 [Example 18, (3R)-1-{3-[3-(Decyloxy)phenyl]propanoyl}pyrrolidin-3-yl dihydrogen phosphate ammonium salt]",,EC50 (human LPA4 receptor; [3]): 1.9 nM; Emax (human LPA4 receptor; [4]): 122%; EC50 (human LPA1 receptor; [5]): > 10000 nM
